Entries after “also recorded” stand apart in the source; their conditions may differ. Where a SMILES comes first, the peptide text is derived from it. Bridges are numbered along the chain shown (N, C = ends). [ ]: non-standard residue; d: D form. hArg = N=C(N)NCCCC[C@H](N)C(=O)O; Mpa = O=C(O)CCS

One assay deals with WT mice. Put plainly: FeCl3-induced carotid arterial thrombosis. The assay is classed as in vivo, mouse. The conditions noted are these: 5 μg/g BW, vs vehicle control. Here is the method:
FIG. […]) is an exemplary embodiment of B12-5 having an antithrombotic effect without prolonging tail bleeding times in mice in accordance with the present disclosure. FIG. […]): Ex vivo effects of B12-5. Wild type (WT; […] One hour later, blood was drawn, followed by isolating platelets. P-selectin exposure (FIG. 19A) and αIIbβ3 integrin activation (FIG. 19B) were assessed in flow cytometry. FIG. 19C: Platelet aggregation was measured after treatment with 0.025 U/mL thrombin. The data represent the mean±SD (n=4). FIG. 19D: The plasma levels of B12-5 were analyzed by liquid chromatography-tandem mass spectrometry (LC-MS/MS) after intravenous injection of the compound (5 μg/g BW) into WT mice and quantified by comparison with a standard curve of B12-5 (mean±SD, n=3). FIG. 19E and FIG. 19F: After laser-induced cremaster arteriolar injury, intravital microscopy was conducted with WT mice pretreated with intravenous injection of saline, eptifibatide (5 μg/g BW), vehicle, or B12-5 (5 μg/g BW). The median integrated fluorescence intensities of anti-CD42c (F platelet) and anti-fibrin (F fibrin) antibodies (n=37-42 arterioles in 6 mice per group). Quantification of the antibody signal at a different time point after laser injury. FIG. 19G: Comparison of B12-5 (5 μg/g BW) with eptifibatide (5 μg/g BW) and their respective controls in inhibiting FeCl3-induced carotid artery thrombosis in WT mice. FIG. 19H and FIG. 19I: WT mice were treated with intravenous injection of vehicle control, eptifibatide (5 μg/g BW), or B12-5 (5 μg/g BW). Thirty minutes later, tail bleeding times and Hb contents were measured after amputation of the tail tip. […] Twenty-three hours later, neurological deficits were assessed by the Bederson score and grip test, and infarct volume was measured as described in Methods. […] Twenty-three hours later, the neurological deficit and infarct volume were measured as described above. […] P values determined by unpaired Student t test (FIG. […]), FIG. 19K, and FIG. 19O) or Mann-Whitney U test (FIG. 19(E-1), FIG. 19L, FIG. 19M, FIG. 19P, and FIG. 19Q). […]

For another assay, the system named is WT (C57BL/6) mice. Put plainly: Intravital microscopy, laser-induced cremaster arteriolar injury, WT mice. The settings on record: iv 5 μg/g BW. It counts as in vivo, mouse. As to the method:
Intravital microscopy was performed in a mouse model of laser-induced cremaster arteriolar injury as previously described. WT (C57BL/6), littermate WT control, and CKO and KO male mice (8-10 weeks old) were anesthetized with intraperitoneal injection of ketamine and xylazine. The cremaster muscle was exteriorized and superfused with 37° C. bicarbonate-buffered saline throughout the experiment. Arteriolar wall injury was induced by laser ablation (Photonics Instruments) as previously described. Multiple thrombi were generated in at least 3 to 4 different arterioles of 1 mouse, with new thrombi formed upstream of earlier thrombi to minimize any contribution from thrombi generated earlier in the mouse. Platelets and fibrin were visualized by infusion of DyLight 649-conjugated anti-CD42c (0.2 μg/g body weight [BW]) and Alexa Fluor 488-conjugated anti-fibrin (0.2 μg/g BW) antibodies, respectively. To detect extracellular Ero1α, Alexa Fluor 488-conjugated rabbit IgG or nonblocking anti-ERO1α antibodies (0.3 μg/g BW) were injected into WT (C57BL/6), WT control, Ero1α KO, and Ero1α CKO mice. In some experiments, wtERO1α or activity-null ERO1α-Cys94Ser (mutant ERO1α [mERO1α]; 4 μg/g BW) was infused into Ero1α KO mice before imaging. To test the effect of ERO1α inhibitors or blocking anti-ERO1α antibodies, WT (C57BL/6) mice were treated with intravenous injection of vehicle control, eptifibatide (5 μg/g BW), B12-5 (5 μg/g BW), isotype control IgGs, anti-ERO1α (15E9, 1-3 μg/g BW), or anti-PDI (BD34, 3 μg/g BW) 3 minutes before treatment with the anti-CD42c and anti-fibrin antibodies. The same dose of eptifibatide was injected every 20 minutes to maintain the inhibitory effect. […] Fluorescence and bright-field images were captured in 6 to 10 different cremaster arterioles with a diameter of 30 to 45 μm in each mouse and recorded using either an Olympus BX61W microscope with a 60×1.0 salt water immersion objective or a Zeiss Axio Examiner Z1 microscope system with a Yokogawa confocal spinning disk (CSU-W1) equipped with 4 stack laser system (405-, 488-, 561-, and 637-nm wavelengths). Images were collected with a high-speed, high-resolution camera (2304×2304 pixel format; ORCA-Fusion BT sCMOS, Hamamatsu). Time 0 was set to when image capture began on each vessel. The data were analyzed using Slidebook (version 6.0; Intelligent Imaging Innovations). Due to the significant variation between vessels in the same mouse, the result from each vessel was counted as an individual value. Representative images were chosen that most closely resemble the mean values in the quantifications.

Take `N=C(N)NCCCC[C@@H]1NC(=O)CCSSC[C@@H](C(N)=O)NC(=O)[C@@H]2CCCN2C(=O)[C@H](Cc2c[nH]c3ccccc23)NC(=O)[C@H](CC(=O)O)NC(=O)CNC1=O` [eptifibatide, reference compound] ([Mpa][hArg]GDWPC-NH2; disulfide 1-7): in the assay with WT mice, the time to occlusion entry is on record as “significantly prolonged”. Moreover, in the assay with WT (C57BL/6) mice, the fibrin generation result is listed as “without reducing; also recorded: without affecting” and the platelet thrombus formation result is listed as “inhibit”.

Values taken from patent US20240366624A1, “METHODS AND COMPOSITIONS FOR TREATING THROMBOTIC DISEASE” (Washington University, priority 2023, published 2024).
